Measured values published in the kinase profiling compilation of Christmann-Franck et al. (2016).

Legend:
MAP3K12 (human) = MAP3K12 (human) (UniProt Q12852)
RET (human) = RET (human) (UniProt P07949); assay: KINOMEscan competition binding; settings: compound 10.0 µM
PDGFRA (human) = PDGFRA (human) (UniProt P16234); assay: KINOMEscan competition binding; settings: compound 10.0 µM
ERBB2 (human) = ERBB2 (human) (UniProt P04626); assay: KINOMEscan competition binding; settings: compound 10.0 µM
PRKCE (human) = PRKCE (human) (UniProt Q02156); assay: KINOMEscan competition binding; settings: compound 10.0 µM
ACVR2B (human) = ACVR2B (human) (UniProt Q13705); assay: KINOMEscan competition binding; settings: compound 10.0 µM
PTK2 (human) = PTK2 (human) (UniProt Q05397); assay: KINOMEscan competition binding; settings: compound 10.0 µM
STK39 (human) = STK39 (human) (UniProt Q9UEW8); assay: KINOMEscan competition binding; settings: compound 10.0 µM
MAPK11 (human) = MAPK11 (human) (UniProt Q15759); assay: KINOMEscan competition binding; settings: compound 10.0 µM
[1] = tested on: ABL1 (human), P00519 [T315I]; assay: KINOMEscan competition binding; settings: compound 10.0 µM
PIM2 (human) = PIM2 (human) (UniProt Q9P1W9); assay: KINOMEscan competition binding; settings: compound 10.0 µM
AXL (human) = AXL (human) (UniProt P30530); assay: KINOMEscan competition binding; settings: compound 10.0 µM
RAF1 (human) = RAF1 (human) (UniProt P04049); assay: KINOMEscan competition binding; settings: compound 10.0 µM
MAP3K13 (human) = MAP3K13 (human) (UniProt O43283); assay: KINOMEscan competition binding; settings: compound 10.0 µM
BMPR2 (human) = BMPR2 (human) (UniProt Q13873); assay: KINOMEscan competition binding; settings: compound 10.0 µM
IGF1R (human) = IGF1R (human) (UniProt P08069); assay: KINOMEscan competition binding; settings: compound 10.0 µM
PAK4 (human) = PAK4 (human) (UniProt O96013); assay: KINOMEscan competition binding; settings: compound 10.0 µM
MAP3K4 (human) = MAP3K4 (human) (UniProt Q9Y6R4); assay: KINOMEscan competition binding; settings: compound 10.0 µM
[2] = target: JAK2 JH1 catalytic (human) (UniProt O60674); assay: KINOMEscan competition binding; settings: compound 10.0 µM
[3] = tested on: BRAF (human), P15056 [V600E]; assay: KINOMEscan competition binding; settings: compound 10.0 µM
MAP4K1 (human) = MAP4K1 (human) (UniProt Q92918); assay: KINOMEscan competition binding; settings: compound 10.0 µM
PDPK1 (human) = PDPK1 (human) (UniProt O15530); assay: KINOMEscan competition binding; settings: compound 10.0 µM
PIK3CA (human) = PIK3CA (human) (UniProt P42336); assay: KINOMEscan competition binding; settings: compound 10.0 µM
SRC (human) = SRC (human) (UniProt P12931); assay: KINOMEscan competition binding; settings: compound 10.0 µM
[4] = target: JAK3 JH1 catalytic (human) (UniProt P52333); assay: KINOMEscan competition binding; settings: compound 10.0 µM
ZAP70 (human) = ZAP70 (human) (UniProt P43403); assay: KINOMEscan competition binding; settings: compound 10.0 µM
PIK3C2B (human) = PIK3C2B (human) (UniProt O00750); assay: KINOMEscan competition binding; settings: compound 10.0 µM
INSR (human) = INSR (human) (UniProt P06213); assay: KINOMEscan competition binding; settings: compound 10.0 µM
DMPK (human) = DMPK (human) (UniProt Q09013); assay: KINOMEscan competition binding; settings: compound 10.0 µM
TGFBR1 (human) = TGFBR1 (human) (UniProt P36897); assay: KINOMEscan competition binding; settings: compound 10.0 µM
PLK4 (human) = PLK4 (human) (UniProt O00444); assay: KINOMEscan competition binding; settings: compound 10.0 µM
PIK3CG (human) = PIK3CG (human) (UniProt P48736); assay: KINOMEscan competition binding; settings: compound 10.0 µM
STK25 (human) = STK25 (human) (UniProt O00506); assay: KINOMEscan competition binding; settings: compound 10.0 µM
TLK1 (human) = TLK1 (human) (UniProt Q9UKI8); assay: KINOMEscan competition binding; settings: compound 10.0 µM
STK16 (human) = STK16 (human) (UniProt O75716); assay: KINOMEscan competition binding; settings: compound 10.0 µM
RIOK2 (human) = RIOK2 (human) (UniProt Q9BVS4); assay: KINOMEscan competition binding; settings: compound 10.0 µM
CLK3 (human) = CLK3 (human) (UniProt P49761); assay: KINOMEscan competition binding; settings: compound 10.0 µM
MAP3K7 (human) = MAP3K7 (human) (UniProt O43318); assay: KINOMEscan competition binding; settings: compound 10.0 µM
CSNK1D (human) = CSNK1D (human) (UniProt P48730); assay: KINOMEscan competition binding; settings: compound 10.0 µM
PRKACA (human) = PRKACA (human) (UniProt P17612); assay: KINOMEscan competition binding; settings: compound 10.0 µM
STK17A (human) = STK17A (human) (UniProt Q9UEE5); assay: KINOMEscan competition binding; settings: compound 10.0 µM

Chain of JAK2 JH1 catalytic (human) (O60674 whole entry, looked up): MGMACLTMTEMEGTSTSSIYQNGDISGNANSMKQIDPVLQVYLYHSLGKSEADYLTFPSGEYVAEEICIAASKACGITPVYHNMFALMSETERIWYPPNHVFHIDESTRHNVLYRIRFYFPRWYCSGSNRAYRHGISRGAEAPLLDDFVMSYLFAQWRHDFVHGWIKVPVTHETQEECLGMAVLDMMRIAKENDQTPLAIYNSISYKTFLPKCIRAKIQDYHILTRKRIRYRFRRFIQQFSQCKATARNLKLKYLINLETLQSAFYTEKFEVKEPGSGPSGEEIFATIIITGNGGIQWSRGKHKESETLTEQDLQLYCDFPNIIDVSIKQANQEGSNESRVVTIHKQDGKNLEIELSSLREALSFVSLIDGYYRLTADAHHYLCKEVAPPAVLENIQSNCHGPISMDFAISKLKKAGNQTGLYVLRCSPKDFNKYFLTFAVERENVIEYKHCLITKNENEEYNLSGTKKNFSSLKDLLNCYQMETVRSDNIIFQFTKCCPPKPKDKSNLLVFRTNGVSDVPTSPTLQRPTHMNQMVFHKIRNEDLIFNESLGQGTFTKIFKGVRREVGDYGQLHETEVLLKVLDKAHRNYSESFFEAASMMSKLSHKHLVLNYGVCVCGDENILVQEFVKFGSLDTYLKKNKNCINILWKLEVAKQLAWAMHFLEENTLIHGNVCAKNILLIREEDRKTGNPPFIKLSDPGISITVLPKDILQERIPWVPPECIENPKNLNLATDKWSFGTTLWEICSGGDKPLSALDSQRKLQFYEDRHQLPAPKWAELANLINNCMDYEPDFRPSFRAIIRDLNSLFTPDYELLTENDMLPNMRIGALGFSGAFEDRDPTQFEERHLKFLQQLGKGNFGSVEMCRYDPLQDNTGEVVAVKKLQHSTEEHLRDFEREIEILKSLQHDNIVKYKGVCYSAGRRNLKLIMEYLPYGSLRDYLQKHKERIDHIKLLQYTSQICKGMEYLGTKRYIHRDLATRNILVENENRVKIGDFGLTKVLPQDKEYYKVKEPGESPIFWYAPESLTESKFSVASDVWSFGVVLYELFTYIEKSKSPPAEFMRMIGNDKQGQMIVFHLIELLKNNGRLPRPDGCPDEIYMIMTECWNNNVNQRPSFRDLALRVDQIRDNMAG
Chain of RIOK2 (human) (Q9BVS4 whole entry, looked up): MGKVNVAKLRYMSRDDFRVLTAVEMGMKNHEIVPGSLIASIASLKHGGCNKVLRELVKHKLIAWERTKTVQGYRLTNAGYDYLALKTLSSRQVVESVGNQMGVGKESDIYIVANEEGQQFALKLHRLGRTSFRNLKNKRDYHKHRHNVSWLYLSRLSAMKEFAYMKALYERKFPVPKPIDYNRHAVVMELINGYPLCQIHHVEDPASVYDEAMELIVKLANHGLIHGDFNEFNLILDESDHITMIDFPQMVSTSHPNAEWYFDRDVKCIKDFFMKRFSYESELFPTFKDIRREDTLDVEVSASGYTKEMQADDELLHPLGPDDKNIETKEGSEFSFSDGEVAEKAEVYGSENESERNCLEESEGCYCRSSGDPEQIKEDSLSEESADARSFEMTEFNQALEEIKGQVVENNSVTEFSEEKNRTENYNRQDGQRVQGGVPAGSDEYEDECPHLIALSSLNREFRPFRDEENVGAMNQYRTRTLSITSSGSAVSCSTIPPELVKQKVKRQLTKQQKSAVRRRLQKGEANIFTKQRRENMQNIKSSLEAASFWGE
Chain of PDPK1 (human) (O15530 whole entry, looked up): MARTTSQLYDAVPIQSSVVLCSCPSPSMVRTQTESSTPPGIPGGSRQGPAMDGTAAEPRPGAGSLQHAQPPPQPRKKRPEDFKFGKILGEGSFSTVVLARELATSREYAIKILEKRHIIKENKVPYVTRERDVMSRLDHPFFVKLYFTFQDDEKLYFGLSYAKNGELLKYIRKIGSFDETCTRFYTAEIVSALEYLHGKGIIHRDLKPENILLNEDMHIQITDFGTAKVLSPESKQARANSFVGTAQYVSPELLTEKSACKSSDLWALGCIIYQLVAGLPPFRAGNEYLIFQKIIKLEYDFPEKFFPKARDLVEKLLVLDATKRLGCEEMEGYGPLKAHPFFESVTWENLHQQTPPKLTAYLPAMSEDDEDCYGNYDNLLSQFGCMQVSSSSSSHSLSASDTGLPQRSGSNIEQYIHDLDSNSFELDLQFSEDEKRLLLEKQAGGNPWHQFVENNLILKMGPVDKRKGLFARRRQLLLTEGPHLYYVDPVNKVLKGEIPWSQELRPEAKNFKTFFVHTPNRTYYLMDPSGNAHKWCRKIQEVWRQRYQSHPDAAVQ
Chain of PIK3C2B (human) (O00750 whole entry, looked up): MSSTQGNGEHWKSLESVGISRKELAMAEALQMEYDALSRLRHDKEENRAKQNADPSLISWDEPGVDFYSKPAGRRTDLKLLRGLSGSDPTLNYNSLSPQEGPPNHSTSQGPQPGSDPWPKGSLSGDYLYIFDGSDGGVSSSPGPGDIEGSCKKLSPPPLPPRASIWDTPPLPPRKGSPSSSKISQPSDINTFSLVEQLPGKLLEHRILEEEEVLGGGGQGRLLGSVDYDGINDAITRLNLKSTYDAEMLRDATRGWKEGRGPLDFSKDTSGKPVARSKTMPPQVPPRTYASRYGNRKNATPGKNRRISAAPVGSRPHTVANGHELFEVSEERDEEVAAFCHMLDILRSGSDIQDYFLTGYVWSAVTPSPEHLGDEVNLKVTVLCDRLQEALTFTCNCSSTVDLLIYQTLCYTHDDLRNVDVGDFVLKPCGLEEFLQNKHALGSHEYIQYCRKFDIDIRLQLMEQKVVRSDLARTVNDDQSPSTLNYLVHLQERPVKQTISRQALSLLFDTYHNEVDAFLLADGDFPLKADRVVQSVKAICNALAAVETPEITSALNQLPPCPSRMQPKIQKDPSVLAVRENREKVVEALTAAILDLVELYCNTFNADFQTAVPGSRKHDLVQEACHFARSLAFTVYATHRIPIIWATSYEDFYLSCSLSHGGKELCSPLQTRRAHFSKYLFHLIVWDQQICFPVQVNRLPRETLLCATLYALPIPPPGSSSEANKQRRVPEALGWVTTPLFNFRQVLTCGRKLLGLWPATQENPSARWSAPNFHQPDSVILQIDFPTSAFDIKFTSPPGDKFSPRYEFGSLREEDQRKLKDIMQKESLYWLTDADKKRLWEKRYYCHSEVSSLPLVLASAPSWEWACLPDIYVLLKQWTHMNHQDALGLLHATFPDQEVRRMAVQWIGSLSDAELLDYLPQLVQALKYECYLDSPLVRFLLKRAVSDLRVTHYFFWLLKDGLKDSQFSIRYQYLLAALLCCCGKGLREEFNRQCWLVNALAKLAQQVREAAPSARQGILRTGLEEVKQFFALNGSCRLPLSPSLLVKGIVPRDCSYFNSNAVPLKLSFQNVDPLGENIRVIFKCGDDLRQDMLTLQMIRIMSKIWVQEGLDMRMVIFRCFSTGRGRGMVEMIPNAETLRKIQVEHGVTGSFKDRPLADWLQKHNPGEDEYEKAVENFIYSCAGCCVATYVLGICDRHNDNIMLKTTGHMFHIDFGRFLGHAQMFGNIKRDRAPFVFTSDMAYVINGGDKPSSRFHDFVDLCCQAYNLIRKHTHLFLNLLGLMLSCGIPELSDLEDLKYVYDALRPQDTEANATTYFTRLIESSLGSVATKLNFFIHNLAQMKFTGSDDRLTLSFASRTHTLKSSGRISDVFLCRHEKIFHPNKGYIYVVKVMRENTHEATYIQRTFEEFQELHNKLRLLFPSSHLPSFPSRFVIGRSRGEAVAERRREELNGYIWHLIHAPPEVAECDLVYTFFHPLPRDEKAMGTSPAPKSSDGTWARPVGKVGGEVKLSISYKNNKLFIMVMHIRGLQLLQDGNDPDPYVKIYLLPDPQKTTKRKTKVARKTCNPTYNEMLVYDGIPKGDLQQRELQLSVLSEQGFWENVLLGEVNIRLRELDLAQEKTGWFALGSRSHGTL
Chain of PAK4 (human) (O96013 whole entry, looked up): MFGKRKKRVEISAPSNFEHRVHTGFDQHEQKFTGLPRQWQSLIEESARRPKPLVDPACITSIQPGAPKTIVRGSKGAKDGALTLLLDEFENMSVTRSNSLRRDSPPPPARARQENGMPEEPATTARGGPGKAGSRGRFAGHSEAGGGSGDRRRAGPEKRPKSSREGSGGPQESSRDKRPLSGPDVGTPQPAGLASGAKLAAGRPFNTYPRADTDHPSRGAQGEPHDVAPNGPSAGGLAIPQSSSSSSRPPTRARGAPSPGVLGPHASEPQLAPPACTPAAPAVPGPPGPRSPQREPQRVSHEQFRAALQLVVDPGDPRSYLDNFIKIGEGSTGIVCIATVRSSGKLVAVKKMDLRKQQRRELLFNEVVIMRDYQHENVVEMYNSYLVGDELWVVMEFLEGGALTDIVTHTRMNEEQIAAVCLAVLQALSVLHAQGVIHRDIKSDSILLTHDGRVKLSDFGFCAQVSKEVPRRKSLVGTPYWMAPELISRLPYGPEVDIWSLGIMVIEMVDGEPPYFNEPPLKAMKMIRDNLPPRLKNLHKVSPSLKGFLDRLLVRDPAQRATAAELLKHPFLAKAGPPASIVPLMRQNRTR
Chain of CLK3 (human) (P49761 whole entry, looked up): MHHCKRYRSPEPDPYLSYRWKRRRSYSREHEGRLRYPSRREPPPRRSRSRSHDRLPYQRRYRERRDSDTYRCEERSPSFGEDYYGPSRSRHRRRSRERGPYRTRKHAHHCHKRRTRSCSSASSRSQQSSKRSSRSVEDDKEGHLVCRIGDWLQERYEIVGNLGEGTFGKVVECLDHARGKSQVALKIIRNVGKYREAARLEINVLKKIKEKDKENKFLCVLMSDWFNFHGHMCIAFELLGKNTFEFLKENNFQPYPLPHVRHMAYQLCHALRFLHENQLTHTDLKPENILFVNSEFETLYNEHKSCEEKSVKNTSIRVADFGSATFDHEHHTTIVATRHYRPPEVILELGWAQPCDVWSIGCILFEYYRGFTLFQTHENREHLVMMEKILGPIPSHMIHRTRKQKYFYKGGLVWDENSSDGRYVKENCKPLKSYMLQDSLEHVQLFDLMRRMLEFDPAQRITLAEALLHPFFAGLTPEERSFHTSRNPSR

IC50 (MAP3K12 (human)): > 10 µM
kinase still bound, per cent of control (RET (human)): 0%
kinase still bound, per cent of control (PDGFRA (human)): 0.4%
kinase still bound, per cent of control (ERBB2 (human)): 100%
kinase still bound, per cent of control (PRKCE (human)): 86%
kinase still bound, per cent of control (ACVR2B (human)): 100%
kinase still bound, per cent of control (PTK2 (human)): 94%
kinase still bound, per cent of control (STK39 (human)): 72%
kinase still bound, per cent of control (MAPK11 (human)): 1.2%
kinase still bound, per cent of control [1]: 46%
kinase still bound, per cent of control (PIM2 (human)): 100%
kinase still bound, per cent of control (AXL (human)): 25%
kinase still bound, per cent of control (RAF1 (human)): 1%
kinase still bound, per cent of control (MAP3K13 (human)): 92%
kinase still bound, per cent of control (BMPR2 (human)): 81%
kinase still bound, per cent of control (IGF1R (human)): 100%
kinase still bound, per cent of control (PAK4 (human)): 100%
kinase still bound, per cent of control (MAP3K4 (human)): 87%
kinase still bound, per cent of control [2]: 80%
kinase still bound, per cent of control [3]: 0.55%
kinase still bound, per cent of control (MAP4K1 (human)): 61%
kinase still bound, per cent of control (PDPK1 (human)): 89%
kinase still bound, per cent of control (PIK3CA (human)): 100%
kinase still bound, per cent of control (SRC (human)): 70%
kinase still bound, per cent of control [4]: 75%
kinase still bound, per cent of control (ZAP70 (human)): 100%
kinase still bound, per cent of control (PIK3C2B (human)): 80%
kinase still bound, per cent of control (INSR (human)): 84%
kinase still bound, per cent of control (DMPK (human)): 100%
kinase still bound, per cent of control (TGFBR1 (human)): 93%
kinase still bound, per cent of control (PLK4 (human)): 52%
kinase still bound, per cent of control (PIK3CG (human)): 98%
kinase still bound, per cent of control (STK25 (human)): 79%
kinase still bound, per cent of control (TLK1 (human)): 100%
kinase still bound, per cent of control (STK16 (human)): 100%
kinase still bound, per cent of control (RIOK2 (human)): 100%
kinase still bound, per cent of control (CLK3 (human)): 65%
kinase still bound, per cent of control (MAP3K7 (human)): 7.2%
kinase still bound, per cent of control (CSNK1D (human)): 88%
kinase still bound, per cent of control (PRKACA (human)): 69%
kinase still bound, per cent of control (STK17A (human)): 62%
Structure (SMILES): O=C(Nc1ccc(Oc2ncnc3[nH]ncc23)cc1)Nc1ccc(Cl)c(C(F)(F)F)c1
